# Source: patent US9758492B2, “IDO inhibitors” (Bristol-Myers Squibb Company, priority 2013, dated 2017)
# Molecular target: IDO (Homo sapiens, UniProt P14902)
# Experiment: LLE_IDO_ABS_DR (IDO assay)
# Chain of IDO (P14902 whole entry): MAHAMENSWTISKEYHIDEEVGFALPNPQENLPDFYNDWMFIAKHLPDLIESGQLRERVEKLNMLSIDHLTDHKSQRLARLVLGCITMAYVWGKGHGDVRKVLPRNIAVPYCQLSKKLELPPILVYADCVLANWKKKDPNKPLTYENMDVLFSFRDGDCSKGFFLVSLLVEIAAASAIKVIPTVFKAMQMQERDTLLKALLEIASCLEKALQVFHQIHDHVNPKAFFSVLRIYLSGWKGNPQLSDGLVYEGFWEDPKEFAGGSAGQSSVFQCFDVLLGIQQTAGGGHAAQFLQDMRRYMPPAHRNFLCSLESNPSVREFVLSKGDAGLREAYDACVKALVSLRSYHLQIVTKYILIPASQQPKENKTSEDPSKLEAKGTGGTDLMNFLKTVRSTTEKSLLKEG
row,Structure (SMILES),IC50
1,"C#CCOc1ccccc1NC(=O)Nc1cc(-c2ccccc2-c2nnn[nH]2)ccc1N(CC(C)C)CC(C)C [Example 269, 1-(4-(diisobutylamino)-2′-(2H-tetrazol-5-yl)-[1,1′-biphenyl]-3-yl)-3-(2-(prop-2-yn-1-yloxy)phenyl)urea]",250 nM
2,"CC(C)CN(CC(C)C)c1ccc(-c2ccccc2-c2nnn[nH]2)cc1NC(=O)Nc1cccc(N(C)C)c1 [Example 262, 1-(4-(diisobutylamino)-2′-(1H-tetrazol-5-yl)-[1,1′-biphenyl]-3-yl)-3-(3-(dimethylamino)phenyl)urea]",190 nM
3,Cc1ccc(NC(=O)Nc2cc(-c3cc(F)ccc3C(=O)O)ccc2N(Cc2ccc(Cl)cc2)C2CCCCC2)cc1 [Example 469],720 nM
4,"COC(=O)c1cnc(NC(=O)Nc2cc(-c3ccccc3-c3nnn[nH]3)ccc2N(CC(C)C)CC(C)C)s1 [Example 144, methyl 2-(3-(4-(diisobutylamino)-2′-(1H-tetrazol-5-yl)biphenyl-3-yl)ureido)thiazole-5-carboxylate]",10 nM
5,"Cc1ccc(NC(=O)Nc2cc(-c3ccccc3NS(=O)(=O)C(F)(F)F)ccc2N(CC(C)C)CC(C)C)cc1 [Example 4, N-(4′-(Diisobutylamino)-3′-(3-p-tolylureido)biphenyl-2-yl)-1,1,1-trifluoromethanesulfonamide]",80 nM
6,"[2H]C([2H])(C(C)C)N(c1ccc(-c2sccc2C(=O)O)cc1NC(=O)Nc1ccccc1F)C1CCCCC1 [Example 36, 2-(4-(Cyclohexyl(1,1-dideutero-2-methylpropyl)amino)-3-(3-(2-fluorophenyl)ureido)phenyl)thiophene-3-carboxylic acid]",5.9 nM
7,Cc1noc(C2CCN(c3ccc(-c4ccccc4-c4nnn[nH]4)cc3NC(=O)Nc3ccc(C(F)(F)F)cc3F)C2)n1 (centres unmarked) [Example 390],1590 nM
8,"O=C(Nc1ccc(F)nc1)Nc1cc(-c2ccccc2-c2nnn[nH]2)ccc1N1CCCc2ccccc21 [Example 365, 1-(4-(3,4-Dihydroquinolin-1(2H)-yl)-2′-(1H-tetrazol-5-yl)-[1,1′-biphenyl]-3-yl)-3-(6-fluoropyridin-3-yl)urea]",5060 nM
9,"Cc1ccc(NC(=O)Nc2cc(-c3ccccc3-c3nnn[nH]3)ccc2N(C)c2ccccc2C(C)(C)C)cc1 [Example 210, 1-(4-((2-(tert-butyl)phenyl)(methyl)amino)-2′-(1H-tetrazol-5-yl)-[1,1′-biphenyl]-3-yl)-3-(p-tolyl)urea]",210 nM
10,"O=C(Nc1ccc(OC(F)(F)F)cc1)Nc1cc(-c2ccccc2-c2nnn[nH]2)ccc1N1CCC(c2ccccc2)C1 (racemic) [Example 369, (±)-1-(4-(3-Phenylpyrrolidin-1-yl)-2′-(1H-tetrazol-5-yl)-[1,1′-biphenyl]-3-yl)-3-(4-(trifluoromethoxy)phenyl)urea]",520 nM
11,"Cc1ccc(NC(=O)Nc2cc(-c3ccccc3C(=O)O)ccc2N(CC(C)C)C2CCC2)cc1 [Example 183, 4′-(cyclobutyl(isobutyl)amino)-3′-(3-(p-tolyl)ureido)-[1,1′-biphenyl]-2-carboxylic acid]",20 nM
12,O=C(Nc1ccccc1F)Nc1cc(-c2cc(F)ccc2C(=O)O)ccc1N(Cc1ccc(Cl)cc1)C1CCCCC1 [Example 470],190 nM
13,"Cc1ccc(NC(=O)Nc2cc(-c3ccc(F)cc3C(=O)O)ccc2N(CC(C)C)CC(C)C)cc1 [Example 70, 4′-(diisobutylamino)-4-fluoro-3′-(3-p-tolylureido)biphenyl-2-carboxylic acid]",110 nM
14,"Cc1ccc(NC(=O)Nc2cc(-c3ccccc3-c3nnn[nH]3)ccc2N2CC(C)CC(C)C2)cc1 (centres unmarked) [Example 235, 1-(4-(3,5-Dimethylpiperidin-1-yl)-2′-(1H-tetrazol-5-yl)-[1,1′-biphenyl]-3-yl)-3-(p-tolyl)urea]",790 nM
15,"Cc1ccc(NC(=O)Nc2cc(-c3cc(F)ccc3C(=O)O)ccc2N(CC(C)C)CC2CCC2)cc1 [Example 99, 4′-((cyclobutylmethyl) (isobutyl)amino)-5-fluoro-3′-(3-p-tolylureido)biphenyl-2-carboxylic acid]",90 nM
16,"CC(C)CN(CC(C)C)c1ccc(-c2ccccc2-c2nnn[nH]2)cc1NC(=O)Nc1cccc(N=[N+]=[N-])c1 [Example 257, 1-(3-azidophenyl)-3-(4-(diisobutylamino)-2′-(1H-tetrazol-5-yl)-[1,1′-biphenyl]-3-yl)urea]",2.73 nM
17,"CC(C)CN(CC(C)C)c1ccc(-c2ccccc2-c2nn[nH]n2)cc1NC(=O)Nc1c(F)cccc1F [Example 283, 1-(2,6-difluorophenyl)-3-(4-(diisobutylamino)-2′-(2H-tetrazol-5-yl)-[1,1′-biphenyl]-3-yl)urea]",10 nM
18,"CCC1CCCCN1c1ccc(-c2ccccc2C(=O)O)cc1NC(=O)Nc1ccc(C)cc1 (centres unmarked) [Example 107, 4′-(2-ethylpiperidin-1-yl)-3′-(3-p-tolylureido)biphenyl-2-carboxylic acid]",1860 nM
19,"Cc1ccc(NC(=O)Nc2cc(-c3ccccc3-c3nnn[nH]3)ccc2N(CCC(F)(F)F)Cc2ccccn2)cc1 [Example 506, 1-(4-((pyridin-2-ylmethyl)(3,3,3-trifluoropropyl)amino)-2′-(1H-tetrazol-5-yl)-[1,1′-biphenyl]-3-yl)-3-(p-tolyl)urea]",40 nM

row,Structure (SMILES),IC50
1,"CC(C)CN(CCC(C)C(F)(F)F)c1ccc(-c2cc(F)ccc2C(=O)O)cc1NC(=O)Nc1ccccc1F (centres unmarked) [Example 204, 5-fluoro-3′-(3-(2-fluorophenyl)ureido)-4′-(isobutyl(4,4,4-trifluoro-3-methylbutyl)amino)-[1,1′-biphenyl]-2-carboxylic acid]",5.26 nM
2,CC1CC(C)CN(c2ccc(-c3ccccc3-c3nnn[nH]3)cc2NC(=O)Nc2ccc(F)cc2)C1 (centres unmarked) [Example 236],2140 nM
3,"Cc1ccc(NC(=O)Nc2c(N(CC(C)C)CC(C)C)ccc(-c3ccccc3C(=O)O)c2F)cc1 [Example 26, 4′-(Diisobutylamino)-2′-fluoro-3′-(3-(p-tolyl)ureido)-[1,1′-biphenyl]-2-carboxylic acid]",370 nM
4,"CC(C)CN(CC(C)C)c1ccc(-c2ccccc2-c2nnn[nH]2)cc1NC(=O)Nc1ccc(F)c(S(C)(=O)=O)c1 [Example 279, 1-(4-(diisobutylamino)-2′-(1H-tetrazol-5-yl)-[1,1′-biphenyl]-3-yl)-3-(4-fluoro-3-(methylsulfonyl)phenyl) urea]",5050 nM
5,Cc1ccc(NC(=O)Nc2cc(-c3ccccc3-c3nnn[nH]3)ccc2N(CCC(C)(C)O)Cc2ccc(Cl)cc2)cc1 [Example 375],4740 nM
6,"Cc1ccc(NC(=O)Nc2cc(-c3ccccc3-c3nnn[nH]3)c(F)cc2N(CC(C)C)C2CCCCC2)cc1 [Example 227, 1-(4-(cyclohexyl(isobutyl)ami-no)-6-fluoro-2′-(1H-tetrazol-5-yl)biphenyl-3-yl)-3-p-tolylurea]",2.91 nM
7,"Cc1ccc(NC(=O)Nc2cc(-c3ccccc3C(=O)O)ccc2N(CCC(F)(F)F)CC2CC2)cc1 [Example 64, 4′-((cyclopropylmethyl) (3,3,3-trifluoropropyl)amino)-3′-(3-p-tolylureido)biphenyl-2-carboxylic acid]",290 nM
8,Cc1ccc(NC(=O)Nc2cc(-c3ccccc3-c3nnn[nH]3)ccc2N(CC(C)C)CC2CC(F)(F)C2)cc1 [Example 381],110 nM
9,"O=C(Nc1ccc(C2CC2)c(F)c1)Nc1cc(-c2ccccc2-c2nnn[nH]2)ccc1N(CCC(F)(F)F)Cc1ccc(Cl)cc1Cl [Example 351, 1-(4-cyclopropyl-3-fluorophenyl)-3-(4-((2,4-dichlorobenzyl)(3,3,3-trifluoropropyl)amino)-2′-(1H-tetrazol-5-yl)-[1,1′-biphenyl]-3-yl)urea]",350 nM
10,"CC(C)CN(CC(C)C)c1ccc(-c2ccccc2-c2nnn[nH]2)cc1NC(=O)NC(C)(C)CC(C)(C)C [Example 288, 1-(4-(Diisobutylamino)-2′-(1H-tetrazol-5-yl)-[1,1′-biphenyl]-3-yl)-3-(2,4,4-trimethylpentan-2-yl)urea]",9120 nM
11,"Cc1ccc(NC(=O)Nc2cc(-c3ccccc3C(=O)O)cc(F)c2N(CC(C)C)CC(C)C)cc1 [Example 6, 4′-(Diisobutylamino)-3′-fluoro-5′-(3-p-tolylureido)biphenyl-2-carboxylic acid]",6.47 nM
12,"CC(C)CN(c1ccc(-c2ccccc2-c2nnn[nH]2)cc1NC(=O)Nc1ccccc1F)C1CCCC1 [Example 175, 1-(4-(cyclopentyl (isobutyl)amino)-2′-(1H-tetrazol-5-yl)biphenyl-3-yl)-3-(2-fluorophenyl)urea]",4.36 nM
13,"Cc1ccc(NC(=O)Nc2cc(-c3cc(F)ccc3C(=O)O)ccc2N(CCC(C)C(F)(F)F)C2CCCCC2)cc1 (centres unmarked) [Example 189, 4′-(cyclohexyl(4,4,4-trifluoro-3-methylbutyl)amino)-5-fluoro-3′-(3-(p-tolyl)ureido)-[1,1′-biphenyl]-2-carboxylic acid]",480 nM
14,"CC(C)CN(c1ccc(-c2ccccc2C(=O)O)cc1NC(=O)Nc1ccc(F)cc1F)C(C)C [Example 157, 3′-(3-(2,4-difluorophenyl)ureido)-4′-(isobutyl(isopropyl)amino)biphenyl-2-carboxylic acid]",20 nM
15,"Cc1ccc(NC(=O)Nc2cc(-c3ccccc3C(=O)O)ccc2N(CCC(C)C(F)(F)F)CC(C)C)cc1 (centres unmarked) [Example 205, 4′-(isobutyl (4,4,4-trifluoro-3-methylbutyl)amino)-3′-(3-(p-tolyl)ureido)-[1,1′-biphenyl]-2-carboxylic acid]",20 nM
16,"Cc1ccc(NC(=O)Nc2cc(-c3ccccc3-c3nnn[nH]3)ccc2N(CC(C)C)C2CCCCC2)cc1 [Example 118, 1-(4-(cyclohexyl(isobutyl)amino)-2′-(1H-tetrazol-5-yl)biphenyl-3-yl)-3-p-tolylurea]",4.76 nM
17,"Cc1ccc(NC(=O)Nc2cc(-c3cc(F)ccc3C(=O)O)ccc2N(Cc2ccccc2)CC(F)F)cc1 [Example 21, 4′-(Benzyl(2,2-difluoroethyl)amino)-5-fluoro-3′-(3-(p-tolyl)ureido)-[1,1′-biphenyl]-2-carboxylic acid]",150 nM
18,Cc1ccc(NC(=O)Nc2cc(-c3ccccc3-c3nnn[nH]3)ccc2N(Cc2ccc(Cl)cc2)C2CCCCC2)cc1 [Example 468],80 nM
19,"Cc1ccc(NC(=O)Nc2cc(-c3ccoc3C(=O)O)ccc2N(CC(C)C)CC(C)C)cc1 [Example 152, 3-(4-(diisobutylamino)-3-(3-p-tolylureido)phenyl)furan-2-carboxylic acid]",770 nM
